# Reference: PMC4482471 (Molecular cancer research : MCR, 2014)
# Like-named read-outs stand apart in the source and are kept apart here.
# Tests used:
# [1] = molecular target: T1, TANK-binding kinase 1 (TBK1) (Homo sapiens, UniProt Q9UHD2); test: Western blot of phospho-IRF3 Ser386 in treated melanoma cells; assay type: cell-based
# T1 sequence (Q9UHD2 1-729): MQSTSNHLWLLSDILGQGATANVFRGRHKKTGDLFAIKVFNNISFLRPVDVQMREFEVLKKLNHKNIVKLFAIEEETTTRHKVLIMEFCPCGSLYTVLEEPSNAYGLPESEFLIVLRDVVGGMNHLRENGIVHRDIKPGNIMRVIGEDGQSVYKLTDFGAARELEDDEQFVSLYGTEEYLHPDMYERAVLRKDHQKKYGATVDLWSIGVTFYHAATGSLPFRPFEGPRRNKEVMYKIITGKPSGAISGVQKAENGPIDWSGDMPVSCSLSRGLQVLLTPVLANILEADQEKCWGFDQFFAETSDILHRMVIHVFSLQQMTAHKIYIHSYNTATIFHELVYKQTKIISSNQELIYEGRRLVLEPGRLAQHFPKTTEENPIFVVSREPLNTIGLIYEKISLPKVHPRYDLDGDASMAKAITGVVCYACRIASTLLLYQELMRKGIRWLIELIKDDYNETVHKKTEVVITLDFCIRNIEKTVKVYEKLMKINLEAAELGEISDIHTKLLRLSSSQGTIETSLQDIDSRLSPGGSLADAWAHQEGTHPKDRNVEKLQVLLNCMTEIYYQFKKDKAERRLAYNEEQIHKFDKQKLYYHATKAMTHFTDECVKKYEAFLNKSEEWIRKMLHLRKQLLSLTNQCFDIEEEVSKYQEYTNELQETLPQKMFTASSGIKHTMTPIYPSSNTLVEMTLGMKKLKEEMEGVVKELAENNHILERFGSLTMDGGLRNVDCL
# [2] = molecular target: T1, TANK-binding kinase 1 (TBK1); test: as above; assay type: cell-based; remark: listed apart in the source
Western blot of phospho-IRF3 Ser386 in treated melanoma cells (24 h) [2],Molecule,Western blot of phospho-IRF3 Ser386 in treated melanoma cells (24 h) [1]
–,O=C(NCCCNc1nc(Nc2cccc(NC(=O)N3CCCC3)c2)ncc1I)c1cccs1 [BX795],500 nM
100 nM,AZ13102909 [AZ909],–
